Source: patent publication US20230000869A1, “NOVEL ALK2 INHIBITORS AND METHODS FOR INHIBITING BMP SIGNALING” (The Brigham and Women's Hospital, Inc., priority 2017, published 2023)

How the values were obtained:
ALK5 = target: T1, ALK5 (Homo sapiens, UniProt P36897); assay: TR-FRET enzymatic assay, ALK5 kinase, 1536-well; format: biochemical; settings: for IC50: 10 nM ALK, Ulight topo II substrate 50 nM, ATP 10 uM (Table 1); for ALK5 Span: span of the concentration-response curve
T1 construct: purchased Life technology (Fredrick, Md.) and/or CARNA BIOSCIENCES Inc. (Kobe, Japan)
T1 sequence (P36897 34-503): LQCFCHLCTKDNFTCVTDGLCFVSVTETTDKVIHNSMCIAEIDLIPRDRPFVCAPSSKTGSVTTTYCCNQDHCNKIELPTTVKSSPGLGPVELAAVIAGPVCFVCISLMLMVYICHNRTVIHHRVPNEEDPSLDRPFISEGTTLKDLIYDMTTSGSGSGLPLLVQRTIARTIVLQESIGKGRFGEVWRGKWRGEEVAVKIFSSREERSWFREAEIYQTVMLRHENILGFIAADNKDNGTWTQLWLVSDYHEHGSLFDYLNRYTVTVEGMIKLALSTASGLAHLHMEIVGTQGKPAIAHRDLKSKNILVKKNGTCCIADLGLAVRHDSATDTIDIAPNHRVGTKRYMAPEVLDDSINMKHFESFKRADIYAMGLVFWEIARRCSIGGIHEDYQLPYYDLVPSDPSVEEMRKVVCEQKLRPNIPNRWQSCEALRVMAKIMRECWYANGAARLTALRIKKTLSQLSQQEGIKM
Text: We have developed six ALK kinase enzyme assays for determination of compound activities on ALK1, ALK2, ALK3, ALK4, ALK5 and ALK6. For the assay development, we had tested a number of substrates and assay conditions that led to the final optimized assay protocols with good assay windows with signal to basal (S/B) ratios above 20 fold for all six ALK assays (FIG. 1). In our knowledge, these ALK kinase assays have not been reported elsewhere.
ALK1 and ALK2-ALK6 were obtained from Life technology (Fredrick, Md.) and CARNA BIOSCIENCES Inc. (Kobe, Japan). Ulight-DNA Topoisomerase 2 alpha (Thr-1342) peptide and Europium anti-phospho-DNA Topoisomerase 2 alpha (Thr-1342) antibody was from Perkin Elmer Inc. The kinase buffer was composed of 50 mM HEPES pH7.0, 10 mM MgCl2, 3 mM MnCl2, 0.005% Tween-20 and 2 mM DTT. The compound plates and the white solid MB assay plates were purchased from Greiner Bio-one (Monroe, N.C.).
The binding of Eu-anti-phospho-peptide antibody to the phosphorylated Ulight peptide substrate bring both Eu donor and Ulight acceptor dye into close proximity. Upon excitation at 320-340 nm, the emission energy from Eu donor is transferred to Ulight acceptor dye that will generate light at 665 nm. The intensity light emission is proportional to the level of the peptide phosphorylation by ALKs. The assay was optimized and performed in 1536 plate (Table 1). Briefly, the ALKs enzymatic assay was initiated by dispense 2.5 ul enzyme with a final concentration at 10 nM prepared in 1× kinase reaction buffer. The assay plate was then added with compounds with the Pintool station (23 nl/well compound dilutions in DMSO solution) that was followed by incubation at room temperature for 10 minutes. Then 2.5 ul/well substrate was added in which 50 nM peptide substrate mixed with 10 uM, 100 uM or 1 mM ATP (final concentration). The assay plate was incubated at room temperature for 60 minutes and the kinase reaction was stopped by addition of 5 ul/well of 4 nM Eu-anti-phospho-peptide antibody with 12 mM EDTA prepared in 1× detection buffer. The assay plate was measured in an EnVision plate reader (Perkin Elmer) in the TR-FRET detection mode (excitation at 340 nm and emission at 665 nm).

TGFβ = assay: Luciferase reporter gene assay for TGFβ activity (HEK293T SBE-Luc SMAD2/3 reporter, TGFβ agonist); format: cell-based; settings: Homo sapiens, HEK-293T, TGFβ 5 ng/mL
Method in brief: (§1)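 TGFβ activity was measured in HEK293T SBE-Luc cells stimulated with 5 ng/mL TGFβ, at compound 10000-30 nM final. ALK2 activity was measured in C2C12 BRE-Luc cells stimulated with 50 ng/mL BMP6, at compound 1000-0.3 nM final. Compound was preincubated 45 min in 2% FBS medium; after ≥18 h agonist exposure, luminescence was read and inhibition expressed as % signal loss versus background-subtracted agonist controls.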

ALK2 = target: T2, ALK2 (Mus musculus, UniProt P37172); assay: Luciferase reporter gene assay for ALK2 activity (C2C12 BRE-Luc SMAD1/5/8 reporter, BMP6 agonist); format: cell-based; settings: BMP6 50 ng/mL
T2 construct: endogenous in cells; host or cells: C2C12-BRE (BRE-Luc reporter line, G418 selection)
T2 sequence (P37172 21-509): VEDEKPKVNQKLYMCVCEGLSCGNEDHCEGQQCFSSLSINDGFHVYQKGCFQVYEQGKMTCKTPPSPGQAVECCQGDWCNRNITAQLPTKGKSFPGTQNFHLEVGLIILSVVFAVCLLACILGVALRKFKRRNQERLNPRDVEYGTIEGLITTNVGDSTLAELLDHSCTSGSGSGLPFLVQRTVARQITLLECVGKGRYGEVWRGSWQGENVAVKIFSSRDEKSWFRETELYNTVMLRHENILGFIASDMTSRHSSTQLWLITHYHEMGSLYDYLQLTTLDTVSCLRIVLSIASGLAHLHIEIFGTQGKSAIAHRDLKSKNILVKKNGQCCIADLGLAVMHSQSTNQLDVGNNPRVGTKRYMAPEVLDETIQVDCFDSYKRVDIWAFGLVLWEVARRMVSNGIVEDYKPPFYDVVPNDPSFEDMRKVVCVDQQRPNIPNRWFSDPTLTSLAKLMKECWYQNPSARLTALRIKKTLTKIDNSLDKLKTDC
Method in brief: as §1

SMILES | IC50 (ALK5) [nM] | ALK5 Span (ALK5) | IC50 (TGFβ) [µM] | IC50 (ALK2) [µM]
Cc1cc(-c2cnn3cc(N4CCC(N5CCN(C)CC5)CC4)cnc23)c2ccccc2n1 [Compound 8] | 2470 | 100.3 | 0.022 | 0.005
Cc1cc(-c2cnn3cc(N4CCC(N5CCOCC5)CC4)cnc23)c2ccccc2n1 [Compound 11] | 2080 | 102.1 | 0.055 | 0.054
COc1cc2c(-c3cnn4cc(N5CCC(N6CCN(C)CC6)CC5)cnc34)ccnc2cc1F [Compound 15, 7-fluoro-6-methoxy-4-(6-(4-(4-methylpiperazin-1-yl)piperidin-1-yl)pyrazolo[1,5-a]pyrimidin-3-yl)quinoline] | 8920 | 96 | 0.284 | 0.019
Cc1cc(-c2cnn3cc(N4CCC(N5CCNCC5)CC4)cnc23)c2ccccc2n1 [Compound 34] | 4680 | 105.678 | 0.027 | 0.037
